Assay results reported in US9902736B2, “1-oxo/acylation-14-acylated oridonin derivative, preparation method therefor and application thereof” (HANGZHOU BENSHENG PHARMACEUTICAL CO., LTD., priority 2012, dated 2018).
In brackets after ≈: the same amount, converted by molar mass.

Legend:
K562/ADR = assay: Leukemia cell growth inhibition, MTT, 72 h; format: cell-based; conditions: Homo sapiens
Procedure, shortened: (§1)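 Seed 6000 cells/well; next day add cpds at graded conc.; 37° C, 5% CO2, 72 h; viable cells by MTT. K562/ADR = drug-resistant CML, H9/Jurkat = ALL, Kasumi-1 = AML-M2.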

Kasumi-1 = assay: Leukemia cell growth inhibition, MTT, 72 h; format: cell-based; conditions: Homo sapiens
Procedure, shortened: as §1

SK-OV-3 = assay: Solid tumor cell growth inhibition, MTT, 72 h; format: cell-based; conditions: Homo sapiens, SK-OV-3, 72 h, MTT; for IC50: read-out: IC50 SK-OV-3; for IC90: read-out: IC90 SK-OV-3
Procedure, shortened: (§2)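 6000 cells/well; DMEM high glucose + 10% FBS; 24 h pre-incubation, 37° C, 5% CO2; test compounds at graded concentrations, mixed; viable-cell readout at end of exposure.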

U87-MG = assay: Solid tumor cell growth inhibition, MTT, 72 h; format: cell-based; conditions: Homo sapiens, U-87 MG
Procedure, shortened: as §2

PANC-1 = assay: Solid tumor cell growth inhibition, MTT, 72 h; format: cell-based; conditions: Homo sapiens
Procedure, shortened: as §2

Hep G2 = assay: Solid tumor cell growth inhibition, MTT, 72 h; format: cell-based; conditions: Homo sapiens, HepG2
Procedure, shortened: as §2

RKO = assay: Solid tumor cell growth inhibition, MTT, 72 h; format: cell-based; conditions: Homo sapiens
Procedure, shortened: as §2

MG-63 = assay: Solid tumor cell growth inhibition, MTT, 72 h; format: cell-based; conditions: Homo sapiens
Procedure, shortened: as §2

Becap-37 = assay: Solid tumor cell growth inhibition, MTT, 72 h; format: cell-based; conditions: Homo sapiens
Procedure, shortened: as §2

A549 = assay: Solid tumor cell growth inhibition, MTT, 72 h; format: cell-based; conditions: Homo sapiens
Procedure, shortened: as §2

PC-3 = assay: Solid tumor cell growth inhibition, MTT, 72 h; format: cell-based; conditions: Homo sapiens
Procedure, shortened: as §2

CaEs-17 = assay: Solid tumor cell growth inhibition, MTT, 72 h; format: cell-based; conditions: Homo sapiens, CaEs17
Procedure, shortened: as §2

H9 = assay: Leukemia cell growth inhibition, MTT, 72 h; format: cell-based, human; conditions: Homo sapiens, H9; 72 h, MTT
Procedure, shortened: as §1

Jurkat = assay: Leukemia cell growth inhibition, MTT, 72 h; format: cell-based, human; conditions: Homo sapiens, Jurkat; 72 h, MTT
Procedure, shortened: as §1

NB4 = assay: Leukemia cell growth inhibition, MTT, 72 h; format: cell-based, human; conditions: Homo sapiens, NB-4; 72 h, MTT
Procedure, shortened: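 Viability determined by MTT following a 72-hour, 37° C, 5% CO2 incubation with test compounds at different concentrations, added the day after seeding 6000 cells per well.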

RPMI 8226 = assay: Multiple myeloma cell growth inhibition, MTT, 72 h; format: cell-based; conditions: Homo sapiens
Procedure, shortened: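 Growth inhibition by MTT after 72 h drug exposure (37 °C, 5% CO2) over a concentration range of oridonin derivatives. RPMI 8226 cells plated at 6000 per well and dosed the following day.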

Hela = assay: Solid tumor cell growth inhibition, MTT, 72 h; format: cell-based, human; conditions: Homo sapiens, HeLa; 72 h, MTT
Procedure, shortened: as §2

CNE = assay: Solid tumor cell growth inhibition, MTT, 72 h; format: cell-based, human; conditions: for IC50 / IC90: Homo sapiens, CNE, 72 h, MTT
Procedure, shortened: as §2

MGC-803 = assay: Solid tumor cell growth inhibition, MTT, 72 h; format: cell-based, human; conditions: Homo sapiens, MGC-803; 72 h, MTT
Procedure, shortened: as §2

Hep-2 = assay: Solid tumor cell growth inhibition, MTT, 72 h; format: cell-based, human; conditions: Homo sapiens, HEp-2; 72 h, MTT
Procedure, shortened: as §2

SMILES: C=C1C(=O)[C@]23[C@H](OC(=O)c4ccc(OC)c(OC)c4)[C@H]1CC[C@H]2[C@@]12CO[C@@]3(O)[C@@H](O)[C@@H]1C(C)(C)CCC2=O [BS-OR-015]
- IC50 (K562/ADR): 0.51 µg/mL (≈ 0.969 µM)
- IC90 (K562/ADR): 1.97 µg/mL (≈ 3.74 µM)
- IC50 (Kasumi-1): 0.51 µg/mL (≈ 0.969 µM)
- IC90 (Kasumi-1): 1.15 µg/mL (≈ 2.18 µM)
- IC50 (SK-OV-3): 1.66 µg/mL (≈ 3.15 µM)
- IC90 (SK-OV-3): 3.04 µg/mL (≈ 5.77 µM)
- IC50 (U87-MG): 0.87 µg/mL (≈ 1.65 µM)
- IC90 (U87-MG): 2.41 µg/mL (≈ 4.58 µM)
- IC50 (PANC-1): 1.88 µg/mL (≈ 3.57 µM)
- IC90 (PANC-1): 9.81 µg/mL (≈ 18.6 µM)
- IC50 (Hep G2): 0.94 µg/mL (≈ 1.79 µM)
- IC90 (Hep G2): 5.47 µg/mL (≈ 10.4 µM)
- IC50 (RKO): 0.42 µg/mL (≈ 0.798 µM)
- IC90 (RKO): 0.94 µg/mL (≈ 1.79 µM)
- IC50 (MG-63): 0.4 µg/mL (≈ 0.76 µM)
- IC90 (MG-63): 0.96 µg/mL (≈ 1.82 µM)
- IC50 (Becap-37): 0.99 µg/mL (≈ 1.88 µM)
- IC90 (Becap-37): 3.17 µg/mL (≈ 6.02 µM)
- IC50 (A549): 2.38 µg/mL (≈ 4.52 µM)
- IC90 (A549): 5.33 µg/mL (≈ 10.1 µM)
- IC50 (PC-3): 1.66 µg/mL (≈ 3.15 µM)
- IC90 (PC-3): 3.04 µg/mL (≈ 5.77 µM)
- IC50 (CaEs-17): 0.95 µg/mL (≈ 1.8 µM)
- IC90 (CaEs-17): 3.05 µg/mL (≈ 5.79 µM)
- IC50 (H9): 0.45 µg/mL (≈ 0.855 µM)
- IC90 (H9): 1.82 µg/mL (≈ 3.46 µM)
- IC50 (Jurkat): 0.69 µg/mL (≈ 1.31 µM)
- IC90 (Jurkat): 2.31 µg/mL (≈ 4.39 µM)
- IC50 (NB4): 0.11 µg/mL (≈ 0.209 µM)
- IC90 (NB4): 0.43 µg/mL (≈ 0.817 µM)
- IC50 (RPMI 8226): 0.3 µg/mL (≈ 0.57 µM)
- IC90 (RPMI 8226): 1.85 µg/mL (≈ 3.51 µM)
- IC50 (Hela): 1.53 µg/mL (≈ 2.91 µM)
- IC90 (Hela): 3.75 µg/mL (≈ 7.12 µM)
- IC50 (CNE): 1.05 µg/mL (≈ 1.99 µM)
- IC90 (CNE): 4.05 µg/mL (≈ 7.69 µM)
- IC50 (MGC-803): 0.84 µg/mL (≈ 1.6 µM)
- IC90 (MGC-803): 4.68 µg/mL (≈ 8.89 µM)
- IC50 (Hep-2): 1.12 µg/mL (≈ 2.13 µM)
- IC90 (Hep-2): 5.05 µg/mL (≈ 9.59 µM)

SMILES: C=C1C(=O)[C@]23[C@H](OC(=O)c4ccc(C)cc4)[C@H]1CC[C@H]2[C@@]12CO[C@@]3(O)[C@@H](O)[C@@H]1C(C)(C)CCC2=O [BS-OR-004]
- IC50 (K562/ADR): 0.41 µg/mL (≈ 0.853 µM)
- IC90 (K562/ADR): 1.72 µg/mL (≈ 3.58 µM)
- IC50 (Kasumi-1): 0.41 µg/mL (≈ 0.853 µM)
- IC90 (Kasumi-1): 1.68 µg/mL (≈ 3.5 µM)
- IC50 (SK-OV-3): 1.45 µg/mL (≈ 3.02 µM)
- IC90 (SK-OV-3): 3.94 µg/mL (≈ 8.2 µM)
- IC50 (U87-MG): 0.8 µg/mL (≈ 1.66 µM)
- IC90 (U87-MG): 3.24 µg/mL (≈ 6.74 µM)
- IC50 (PANC-1): 1.31 µg/mL (≈ 2.73 µM)
- IC90 (PANC-1): 8.24 µg/mL (≈ 17.1 µM)
- IC50 (Hep G2): 0.85 µg/mL (≈ 1.77 µM)
- IC90 (Hep G2): 7.84 µg/mL (≈ 16.3 µM)
- IC50 (RKO): 0.31 µg/mL (≈ 0.645 µM)
- IC90 (RKO): 0.87 µg/mL (≈ 1.81 µM)
- IC50 (MG-63): 0.33 µg/mL (≈ 0.687 µM)
- IC90 (MG-63): 0.87 µg/mL (≈ 1.81 µM)
- IC50 (Becap-37): 0.66 µg/mL (≈ 1.37 µM)
- IC90 (Becap-37): 3.3 µg/mL (≈ 6.87 µM)
- IC50 (A549): 1.71 µg/mL (≈ 3.56 µM)
- IC90 (A549): 4.9 µg/mL (≈ 10.2 µM)
- IC50 (PC-3): 1.45 µg/mL (≈ 3.02 µM)
- IC90 (PC-3): 3.94 µg/mL (≈ 8.2 µM)
- IC50 (CaEs-17): 0.88 µg/mL (≈ 1.83 µM)
- IC90 (CaEs-17): 4.58 µg/mL (≈ 9.53 µM)
- IC50 (H9): 0.34 µg/mL (≈ 0.708 µM)
- IC90 (H9): 0.83 µg/mL (≈ 1.73 µM)
- IC50 (Jurkat): 0.62 µg/mL (≈ 1.29 µM)
- IC90 (Jurkat): 2.7 µg/mL (≈ 5.62 µM)
- IC50 (NB4): 0.13 µg/mL (≈ 0.271 µM)
- IC90 (NB4): 0.76 µg/mL (≈ 1.58 µM)
- IC50 (RPMI 8226): 0.31 µg/mL (≈ 0.645 µM)
- IC90 (RPMI 8226): 1.77 µg/mL (≈ 3.68 µM)
- IC50 (Hela): 1.28 µg/mL (≈ 2.66 µM)
- IC90 (Hela): 3.87 µg/mL (≈ 8.05 µM)
- IC50 (CNE): 0.95 µg/mL (≈ 1.98 µM)
- IC90 (CNE): 4.67 µg/mL (≈ 9.72 µM)
- anti-CNE activity increased (CNE; in comparison with oridonin): ~6 fold
- IC50 (MGC-803): 0.65 µg/mL (≈ 1.35 µM)
- IC90 (MGC-803): 4.88 µg/mL (≈ 10.2 µM)
- IC50 (Hep-2): 1.38 µg/mL (≈ 2.87 µM)
- IC90 (Hep-2): 6.79 µg/mL (≈ 14.1 µM)
